These results are taken from patent US7932262B2 (Novartis AG, priority 2006, dated 2011).

pEC50, pIC50: −log10 of the molar value. Some results are limits rather than exact numbers.

In general, pIC50 refers to the negative decadic logarithm of the IC50, by convention in mol/L.

In one assay the test system is PC3MM cells. The experiment in a line: Cell Proliferation Assay (Cell Titer Glo), PC3MM. The class given is cell-based. Particulars: cell proliferation, PC3MM cells; read-out: CPEC50 PC3MM. A digest of the protocol:
(§1)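 Following a 3-day compound exposure (37° C., 5% CO2) of A2780 or PC3MM cells plated at 1000 per well, viability was measured by Cell Titer Glo luminescence in fresh medium, read 10 min after reagent addition.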
(In general: Cellular ATP, detected with luciferase, serves as a proxy for viable cell number.)

In another assay the test system is A2780 cells. Description: Cell Proliferation Assay (Cell Titer Glo), A2780. Conditions: Homo sapiens; cell proliferation, A2780 cells; read-out: CPEC50 A2780. The assay is classed as cell-based. In outline:
as §1

In a further assay the target is T1, PDK1 kinase (Homo sapiens, UniProt O15530).
T1 sequence (O15530 1-556): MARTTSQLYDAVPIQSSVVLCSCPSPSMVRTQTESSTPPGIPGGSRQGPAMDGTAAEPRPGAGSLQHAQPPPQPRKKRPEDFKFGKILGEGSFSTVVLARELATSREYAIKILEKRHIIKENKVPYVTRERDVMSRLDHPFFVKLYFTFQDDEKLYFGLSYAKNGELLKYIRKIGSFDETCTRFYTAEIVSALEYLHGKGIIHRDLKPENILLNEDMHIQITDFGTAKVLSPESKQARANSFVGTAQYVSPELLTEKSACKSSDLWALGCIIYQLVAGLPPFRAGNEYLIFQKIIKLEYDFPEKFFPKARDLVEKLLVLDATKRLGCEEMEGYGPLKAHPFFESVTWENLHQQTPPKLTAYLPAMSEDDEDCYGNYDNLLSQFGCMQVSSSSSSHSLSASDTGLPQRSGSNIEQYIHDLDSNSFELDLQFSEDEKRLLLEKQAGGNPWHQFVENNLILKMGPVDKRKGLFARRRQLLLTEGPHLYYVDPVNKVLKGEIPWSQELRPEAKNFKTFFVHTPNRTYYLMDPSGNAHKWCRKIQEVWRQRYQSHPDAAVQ
Description: PDK1 Kinase Alpha Screen Assay. The class given is biochemical. Particulars: PDK1 Kinase Alpha Screen Assay; read-out: PDK1 IC50. In outline: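 AlphaScreen readout: phospho-peptide captured by phospho-(Ser/Thr) PKA substrate antibody (0.3 mg/ml) on protein A acceptor beads, biotin peptide on streptavidin donor beads (25 μg/ml each), overnight at room temperature. Kinase step used 50 nM PDK1-4 peptide, 10 uM ATP, 3-18 hours.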

Turning to `CN1CCN(S(=O)(=O)c2cccc(Nc3ncc4cccc(OC5CCNCC5)c4n3)c2)CC1` [Compound 775, N-(3-(4-methylpiperazin-1-ylsulfonyl)phenyl)-8-(piperidin-4-yloxy)quinazolin-2-amine], the pEC50 in the assay with PC3MM cells is greater than 5.30; in the assay with A2780 cells it was 5.00 to 5.30. At PDK1 kinase, the pIC50 is greater than 5.30.
With `CC(C)NS(=O)(=O)c1cccc(Nc2ncc3cccc(OC4CCNCC4)c3n2)c1` [Compound 776, N-isopropyl-3-(8-(piperidin-4-yloxy)quinazolin-2-ylamino)benzenesulfonamide], the pEC50 in the assay on PC3MM cells and in the assay on A2780 cells was greater than 5.30 in each case. Moreover, at PDK1 kinase, the pIC50 is greater than 5.30.
For `COCCNS(=O)(=O)c1cccc(Nc2ncc3cccc(OC4CCNCC4)c3n2)c1` [Compound 777, N-(2-methoxyethyl)-3-(8-(piperidin-4-yloxy)quinazolin-2-ylamino)benzenesulfonamide], the pEC50 in the assay with PC3MM cells is greater than 5.30; in the assay with A2780 cells, 5.00 to 5.30. Also, the pIC50 on PDK1 kinase was greater than 5.30.
`CN1CCN(S(=O)(=O)c2ccc(Nc3ncc4cccc(OC5CCNCC5)c4n3)cc2)CC1` [Compound 778, N-(4-(4-methylpiperazin-1-ylsulfonyl)phenyl)-8-(piperidin-4-yloxy)quinazolin-2-amine]: the pEC50 in the assay with PC3MM cells and in the assay with A2780 cells was greater than 5.30 throughout. For the same molecule, the pIC50 on PDK1 kinase is greater than 5.30.
Take `NC(=O)c1cccc(-c2ccc3cnc(Nc4ccc(S(N)(=O)=O)cc4)nc3c2)c1` [Compound 782]: the pEC50 with PC3MM cells was greater than 5.30; in the assay on A2780 cells, 5.00 to 5.30. The pIC50 at PDK1 kinase is greater than 5.30.
Turning to `NC(=O)c1ccc(-c2ccc3cnc(Nc4ccc(S(N)(=O)=O)cc4)nc3c2)cc1` [Compound 783, 4-(2-(4-sulfamoylphenylamino)quinazolin-7-yl)benzamide], the values for the pEC50 in the assay on PC3MM cells and with A2780 cells were greater than 5.30 and 5.00 to 5.30, respectively. For the same molecule, the pIC50 on PDK1 kinase is greater than 5.30.
With `NS(=O)(=O)c1ccc(Nc2ncc3ccc(-c4cccc(S(N)(=O)=O)c4)cc3n2)cc1` [Compound 786, 3-(2-(4-sulfamoylphenylamino)quinazolin-7-yl)benzenesulfonamide], the pEC50 in the assay with PC3MM cells is greater than 5.30; in the assay with A2780 cells, 5.00 to 5.30. For the same molecule, the pIC50 at PDK1 kinase was greater than 5.30.
In the case of `Nc1ccc(-c2ccc3cnc(Nc4ccc(S(N)(=O)=O)cc4)nc3c2)cn1` [Compound 789, 4-(7-(6-aminopyridin-3-yl)quinazolin-2-ylamino)benzenesulfonamide], the pEC50 in the assay with PC3MM cells and with A2780 cells was greater than 5.30 in each case. On PDK1 kinase, the pIC50 is greater than 5.30.
As for `NC(=O)c1ccc(-c2ccc3cnc(Nc4ccc(S(N)(=O)=O)cc4)nc3c2)cn1` [Compound 790, 5-(2-(4-sulfamoylphenylamino)quinazolin-7-yl)picolinamide], the values for the pEC50 in the assay on PC3MM cells and with A2780 cells were greater than 5.30 and 5.00 to 5.30, respectively. Moreover, the pIC50 on PDK1 kinase was greater than 5.30.
On to `NS(=O)(=O)c1ccc(Nc2ncc3ccc(-c4cn[nH]c4)cc3n2)cc1` [Compound 792, 4-(7-(1H-pyrazol-4-yl)quinazolin-2-ylamino)benzenesulfonamide], for which the pEC50 in the assay on PC3MM cells and in the assay with A2780 cells was greater than 5.30 throughout. At PDK1 kinase, the pIC50 was greater than 5.30.
Turning to `NS(=O)(=O)c1ccc(Nc2ncc3ccc(-c4cccnc4)cc3n2)cc1` [Compound 793, 4-(7-(pyridin-3-yl)quinazolin-2-ylamlno)benzenesulfonamide], the pEC50 with PC3MM cells and with A2780 cells was greater than 5.30 each time. Moreover, at PDK1 kinase, the pIC50 is greater than 5.30.
With `CNC(=O)c1ccc(Nc2ncc3cccc(OC4CCN(C(C)C)CC4)c3n2)cc1` [Compound 796, 4-(8-(1-isopropylpiperidin-4-yloxy)quinazolin-2-ylamino)-N-methylbenzamide], the pEC50 in the assay with PC3MM cells and in the assay with A2780 cells was greater than 5.30 in each case. The pIC50 at PDK1 kinase was greater than 5.30.
As for `CN1CCN(C(=O)c2ccc3cnc(Nc4ccc(S(N)(=O)=O)cc4)nc3c2)CC1` [Compound 798, 4-(7-(4-methylpiperazine-1-carbonyl)quinazolin-2-ylamino)benzenesulfonamide], the pEC50 is 4.60 to 5.00 in the assay on PC3MM cells and 5.00 to 5.30 in the assay with A2780 cells. The pIC50 on PDK1 kinase is 4.60 to 5.00.
For `COc1cncc(-c2ccc3cnc(Nc4ccc(S(N)(=O)=O)cc4)nc3c2)c1` [Compound 801, 4-(7-(5-methoxypyridin-3-yl)quinazolin-2-ylamino)benzenesulfonamide], the pEC50 with PC3MM cells and with A2780 cells was greater than 5.30 each time. For the same molecule, the pIC50 on PDK1 kinase was greater than 5.30.
`NS(=O)(=O)c1ccc(Nc2ncc3ccc(-c4ccc(C(=O)N5CCOCC5)cc4)cc3n2)cc1` [Compound 802, 4-(7-(4-(morpholine-4-carbonyl)phenyl)quinazolin-2-ylamino)benzenesulfonamide]: the pEC50 in the assay on PC3MM cells was greater than 5.30; with A2780 cells, 5.00 to 5.30. Also, the pIC50 at PDK1 kinase was greater than 5.30.
Regarding `NS(=O)(=O)c1ccc(Nc2ncc3cccc(C(=O)NC4CCCNC4)c3n2)cc1` (stereo not drawn) [Compound 803, N-(piperidin-3-yl)-2-(4-sulfamoylphenylamino)quinazoline-8-carboxamide], the results for the pEC50 in the assay with PC3MM cells and with A2780 cells were greater than 5.30 and 5.00 to 5.30, respectively. Also, the pIC50 on PDK1 kinase was greater than 5.30.
On to `CN(C)[C@@H]1CCN(C(=O)c2cccc3cnc(Nc4ccc(S(N)(=O)=O)cc4)nc23)C1` [Compound 804, (R)-4-(8-(3-(dimethylamino)pyrrolidine-1-carbonyl)quinazolin-2-ylamino)benzenesulfonamide], for which the pEC50 was greater than 5.30 in the assay on PC3MM cells and 5.00 to 5.30 with A2780 cells. The negative logarithm of the IC50 (pIC50) on PDK1 kinase was greater than 5.30.
As for `NS(=O)(=O)c1ccc(Nc2ncc3cccc(C(=O)NC4CCNCC4)c3n2)cc1` [Compound 805, N-(piperidin-4-yl)-2-(4-sulfamoylphenylamino)quinazoline-8-carboxamide], the figures for the pEC50 with PC3MM cells and in the assay on A2780 cells were greater than 5.30 and 5.00 to 5.30, respectively. Besides, at PDK1 kinase, the negative-log IC50 (pIC50) is greater than 5.30.
As to `CN(C)[C@H]1CCN(C(=O)c2cccc3cnc(Nc4ccc(S(N)(=O)=O)cc4)nc23)C1` [Compound 806, (S)-4-(8-(3-(dimethylamino)pyrrolidine-1-carbonyl)quinazolin-2-ylamino)benzenesulfonamide], the pEC50 in the assay on PC3MM cells was greater than 5.30; in the assay on A2780 cells, 5.00 to 5.30. Further, the pIC50 at PDK1 kinase was greater than 5.30.
Regarding `NS(=O)(=O)c1ccc(Nc2ncc3cccc(C(=O)N[C@H]4CN5CCC4CC5)c3n2)cc1` [Compound 807, (R)-N-(quinuclidin-3-yl)-2-(4-sulfamoylphenylamino)quinazoline-8-carboxamide], the pEC50 with PC3MM cells and in the assay on A2780 cells was 5.00 to 5.30 throughout. The pIC50 at PDK1 kinase was 5.00 to 5.30.
As for `NS(=O)(=O)c1ccc(Nc2ncc3cccc(C(=O)N4CCNC(=O)C4)c3n2)cc1` [Compound 808, 4-(8-(3-oxopiperazine-1-carbonyl)quinazolin-2-ylamino)benzenesulfonamide], the pEC50 in the assay with PC3MM cells was greater than 5.30; with A2780 cells it was 5.00 to 5.30. For the same molecule, on PDK1 kinase, the pIC50 was greater than 5.30.
For the molecule `NS(=O)(=O)c1ccc(Nc2ncc3cccc(C(=O)N[C@@H]4CN5CCC4CC5)c3n2)cc1` [Compound 809, (S)-N-(quinuclidin-3-yl)-2-(4-sulfamoylphenylamino)quinazoline-8-carboxamide], the pEC50 in the assay with PC3MM cells was greater than 5.30; in the assay on A2780 cells it was 5.00 to 5.30. The negative-log IC50 (pIC50) on PDK1 kinase was greater than 5.30.
On to `O=S(=O)(NCCN1CCCC1)c1cccc(Nc2ncc3cccc(OC4CCNCC4)c3n2)c1` [Compound 811, 3-(8-(piperidin-4-yloxy)quinazolin-2-ylamino)-N-(2-(pyrrolidin-1-yl)ethyl)benzenesulfonamide], for which the pEC50 in the assay with PC3MM cells was greater than 5.30; in the assay on A2780 cells, 5.00 to 5.30. Also, the pIC50 on PDK1 kinase was greater than 5.30.
As for `O=S(=O)(NC1CC1)c1cccc(Nc2ncc3cccc(OC4CCNCC4)c3n2)c1` [Compound 812, N-cyclopropyl-3-(8-(piperidin-4-yloxy)quinazolin-2-ylamino)benzenesulfonamide], the pEC50 with PC3MM cells and in the assay with A2780 cells was greater than 5.30 throughout. Moreover, the negative logarithm of the IC50 (pIC50) at PDK1 kinase was greater than 5.30.
As to `NS(=O)(=O)c1ccc(Nc2ncc3ccc(-c4ccc5cn[nH]c5c4)cc3n2)cc1` [Compound 813, 4-(7-(1H-indazol-6-yl)quinazolin-2-ylamino)benzenesulfonamide], the pEC50 in the assay on PC3MM cells and with A2780 cells was greater than 5.30 in each case. Also, the pIC50 at PDK1 kinase was greater than 5.30.
In the case of `COc1ncc(-c2ccc3cnc(Nc4ccc(S(N)(=O)=O)cc4)nc3c2)cn1` [Compound 814, 4-(7-(2-methoxypyrimidin-5-yl)quinazolin-2-ylamino)benzenesulfonamide], the pEC50 in the assay with PC3MM cells and with A2780 cells was greater than 5.30 in each case. The negative-log IC50 (pIC50) on PDK1 kinase is greater than 5.30.
Regarding `NS(=O)(=O)c1ccc(Nc2ncc3ccc(Nc4ccc5cn[nH]c5c4)cc3n2)cc1` [Compound 815, 4-(7-(1H-indazol-6-ylamino)quinazolin-2-ylamino)benzenesulfonamide], the pEC50 in the assay on PC3MM cells and with A2780 cells was greater than 5.30 in each case. In addition, the pIC50 on PDK1 kinase is greater than 5.30.
